Source: PMC12190468, “Designing New Chimeric Proline-Rich Antimicrobial Peptides to Enhance Efficacy Toward the ESKAPE+E: Beyond Sequence Extension” (Biomolecules, 2025)
Where two headings read alike, the source gives them in different places. Ends that are not written are not given here.

How the values were obtained:
E. coli ATCC 25922 [1] = type: cell-based, Escherichia coli
Protocol: (§1) Reference bacterial strains, including Escherichia coli BW25113, Escherichia coli ATCC 25922, Klebsiella pneumoniae ATCC 700603, Acinetobacter baumannii ATCC 19606, Enterobacter cloacae ATCC 13047, Pseudomonas aeruginosa ATCC 27853, Staphylococcus aureus ATCC 25923, and Enterococcus faecium ATCC 19434, were obtained from the American Type Culture Collection (ATCC) in Manassas, VA, USA. Strains were stored at −80 °C in glycerol stocks until use. For all experiments, cultures were grown in sterile MHB (Difco Inc., Becton Dickinson, Sparks, MD, USA). Overnight cultures were incubated at 37 °C for approximately 18 h under shacking (140 rpm, then diluted 1:30 in fresh MHB and again shaken at 140 rpm for ~2 h to reach the mid-log phase (OD ~0.3 at 600 nm). The bacterial cultures were then diluted to the desired concentration for experiments. E. coli BW25113 ΔsbmA (Keio collection) was grown in MHB with the addition of 50 μg/mL kanamycin (Sigma, Milan, Italy).
(§2) Antimicrobial activity was assessed using the Minimum Inhibitory Concentration (MIC) assay, following CLSI guidelines. Briefly, peptides were serially diluted in MHB across a 96-well round-bottom plate (Sarstedt, Milan, Italy), starting with 50 μL in the first well. A mid-log bacterial culture was diluted to 5 × 10^5 CFU/mL, and 50 μL of this suspension was added to each well (except the MHB sterility control wells). […] MIC values were confirmed by at least three independent experiments (n ≥ 3).

E. coli BW 25113 ΔsbmA [2] = type: cell-based, Escherichia coli; details: full MHB, 18 h at 37 °C, mode of at least three independent experiments
Protocol: as §1, §2

E. coli BW 25113 [3] = type: cell-based, Escherichia coli; details: full MHB, 18 h at 37 °C, mode of at least three independent experiments
Protocol: as §1, §2

E. faecium ATCC 19434 [4] = type: cell-based, Enterococcus faecium
Protocol: as §1, §2

P. aeruginosa ATCC 27853 [5] = type: cell-based, Pseudomonas aeruginosa
Protocol: as §1, §2

E. cloacae ATCC 13047 [6] = type: cell-based, Enterobacter cloacae
Protocol: as §1, §2

E. coli ATCC 25922 [7] = type: cell-based, Escherichia coli; remark: listed apart in the source
Protocol: as §1
(§3) The Minimal Bactericidal Concentration (MBC) was determined by plating 25 μL from clear MIC wells onto MH-agar Petri dishes (Difco Inc., Becton Dickinson, Sparks, MD, USA), followed by overnight incubation at 37 °C. The MBC was the lowest compound concentration, reducing bacterial viability by ≥99.9%. Results were based on at least three independent experiments (n ≥ 3).

E. coli BW 25113 [8] = type: cell-based, Escherichia coli; details: ≥99.9% reduction of viability, after 18 h at 37 °C, mode of at least three independent experiments
Protocol: as §1, §3

E. faecium ATCC 19434 [9] = type: cell-based, Enterococcus faecium; remark: listed apart in the source
Protocol: as §1, §3

S. aureus ATCC 25923 [10] = type: cell-based, Staphylococcus aureus
Protocol: as §1, §3

[11] = tested on: K. pneumoniae ATCC 700603; type: cell-based, Klebsiella pneumoniae
Protocol: as §1, §3

A. baumannii ATCC 19606 [12] = type: cell-based, Acinetobacter baumannii
Protocol: as §1, §3

P. aeruginosa ATCC 27853 [13] = type: cell-based, Pseudomonas aeruginosa; remark: listed apart in the source
Protocol: as §1, §3

E. cloacae ATCC 13047 [14] = type: cell-based, Enterobacter cloacae; remark: listed apart in the source
Protocol: as §1, §3

S. aureus ATCC 25923 [15] = type: cell-based, Staphylococcus aureus; details: ATCC 25923, 18 h
Protocol: as §1, §2

A. baumannii ATCC 19606 [16] = type: cell-based, Acinetobacter baumannii; details: ATCC 19606, 18 h
Protocol: as §1, §2

[17] = tested on: K. pneumoniae ATCC 700603; type: cell-based, Klebsiella pneumoniae; details: ATCC 700603, 18 h
Protocol: as §1, §2

E. coli BW 25113 ΔsbmA [18] = type: cell-based, Escherichia coli; details: ≥99.9% reduction of viability, after 18 h at 37 °C, mode of at least three independent experiments
Protocol: as §1, §3

A549 cells = type: cell-based, human
Protocol: The human lung carcinoma epithelial cell line (A549) was obtained from the American Type Culture Collection (ATCC) (Manassas, VA, USA). A549 cells were cultured in adhesion flasks (EuroClone, Milan, Italy) with complete Dulbecco’s MEM (DMEM, EuroClone, Milan, Italy) containing high glucose, supplemented with 100 U/mL penicillin, […] streptomycin (Sigma, Milan, Italy), 2 mM L-glutamine, and 10% FBS (Life Technologies, Carlsbad, CA, USA). Cells were incubated at 37 °C with 5% CO2.
Cytotoxicity in A549 cells was assessed using the MTT assay. After reaching confluence, cells were counted using a Bürker–Türk chamber and diluted to 2 × 10^5 cells/mL in DMEM. A total of 100 μL of this suspension was seeded into 96-well plates (Sarstedt, Milan, Italy) and incubated overnight at 37 °C with 5% CO2. The next day, the spent medium was replaced with 100 μL of fresh DMEM medium containing peptide or water at the desired concentration. After 20 h of incubation, 25 μL of 1 mg/mL MTT (Sigma, Milan, Italy) in PBS was added, and the plates were incubated for 4 h in the dark. […] After overnight incubation, absorbance was measured at 570 nm using a Nanoquant Infinite-M200Pro plate reader (Tecan Trading AG, Switzerland). The cytotoxicity was calculated by comparing the OD of treated samples with that of untreated controls. […]

Sequence	MIC (E. coli BW 25113 ΔsbmA [2])	MIC (E. coli BW 25113 [3])	MBC (E. coli BW 25113 [8])	MIC (E. coli ATCC 25922 [1]; ATCC 25922, 18 h)	MIC (geometric mean) (E. coli ATCC 25922 [1]; ATCC 25922, 18 h)	MIC (S. aureus ATCC 25923 [15])	MIC (geometric mean) (S. aureus ATCC 25923 [15])	MIC (A. baumannii ATCC 19606 [16])	MIC (P. aeruginosa ATCC 27853 [5]; ATCC 27853, 18 h)	MIC (geometric mean) (P. aeruginosa ATCC 27853 [5]; ATCC 27853, 18 h)	MBC (E. coli ATCC 25922 [7]; ATCC 25922, 18 h)	MBC (geometric mean) (E. coli ATCC 25922 [7]; ATCC 25922, 18 h)	MBC (E. faecium ATCC 19434 [9]; ATCC 19434, 18 h)	MBC (S. aureus ATCC 25923 [10]; ATCC 25923, 18 h)	MBC (P. aeruginosa ATCC 27853 [13]; ATCC 27853, 18 h)	MBC (E. cloacae ATCC 13047 [14]; ATCC 13047, 18 h)	MBC (geometric mean) (S. aureus ATCC 25923 [10]; ATCC 25923, 18 h)	MBC ([11]; ATCC 700603, 18 h)	MBC (geometric mean) ([11]; ATCC 700603, 18 h)	MBC (E. coli BW 25113 ΔsbmA [18])	other results
WRIRRRWPRLPRPRWR [Peptide B7-005]	2 µM	1 µM	2 µM																		MIC (E. coli ATCC 25922 [1]; E. coli ATCC 25922, full MHB, 18 h at 37 °C, mode of at least three independent experiments): 1 µM; MIC (E. faecium ATCC 19434 [4]; E. faecium ATCC 19434, full MHB, 18 h at 37 °C, mode of at least three independent experiments): 32 µM; MIC (P. aeruginosa ATCC 27853 [5]; P. aeruginosa ATCC 27853, full MHB, 18 h at 37 °C, mode of at least three independent experiments): 16 µM; MIC (E. cloacae ATCC 13047 [6]; E. cloacae ATCC 13047, full MHB, 18 h at 37 °C, mode of at least three independent experiments): 8 µM; MBC (E. coli ATCC 25922 [7]; E. coli ATCC 25922, ≥99.9% reduction of viability, after 18 h at 37 °C, mode of at least three independent experiments): 2 µM; MBC (E. faecium ATCC 19434 [9]; E. faecium ATCC 19434, ≥99.9% reduction of viability, after 18 h at 37 °C, mode of at least three independent experiments): >64 µM; MBC (S. aureus ATCC 25923 [10]; S. aureus ATCC 25923, ≥99.9% reduction of viability, after 18 h at 37 °C, mode of at least three independent experiments): 16 µM; MBC ([11]; K. pneumoniae ATCC 700603, ≥99.9% reduction of viability, after 18 h at 37 °C, mode of at least three independent experiments): 4 µM; MBC (A. baumannii ATCC 19606 [12]; A. baumannii ATCC 19606, ≥99.9% reduction of viability, after 18 h at 37 °C, mode of at least three independent experiments): 4 µM; MBC (P. aeruginosa ATCC 27853 [13]; P. aeruginosa ATCC 27853, ≥99.9% reduction of viability, after 18 h at 37 °C, mode of at least three independent experiments): 16 µM; MBC (E. cloacae ATCC 13047 [14]; E. cloacae ATCC 13047, ≥99.9% reduction of viability, after 18 h at 37 °C, mode of at least three independent experiments): 16 µM
WRIRRRWPRLPRPRWRPLPFPR [Peptide B7-B6]	2 µM	1 µM	1 µM	2 µM	1,6 µM	8 µM	10,1 µM	1 µM	8 µM	10,1 µM	2 µM	1,6 µM	>64 µM	16 µM	16 µM	4 µM					MIC (E. faecium ATCC 19434 [4]; ATCC 19434, 18 h): 8 µM; MIC (geometric mean) (E. faecium ATCC 19434 [4]; ATCC 19434, 18 h): 10,1 µM
WRIRRRWPRLPRPRWRPLPFPRPGPRP [Peptide B7-B11]	1 µM	0.5 µM	1 µM	1 µM	0,8 µM	16 µM	20,2 µM	1 µM	16 µM	12,7 µM			>64 µM	32 µM	16 µM	4 µM	40,3 µM	8 µM	6,3 µM		MIC [17]: 2 µM; MIC (geometric mean) (A. baumannii ATCC 19606 [16]): 0,8 µM; MIC (E. cloacae ATCC 13047 [6]; ATCC 13047, 18 h): 2 µM; MBC (A. baumannii ATCC 19606 [12]; ATCC 19606, 18 h): 2 µM; MBC (geometric mean) (P. aeruginosa ATCC 27853 [13]; ATCC 27853, 18 h): 20,2 µM
WRIRRRWPRLPRPRWRPRFPPP [Peptide B7-T6]	1 µM	1 µM	2 µM	0.5 µM	0,6 µM	16 µM		1 µM	8 µM	12,7 µM	0.5 µM	0,6 µM	>64 µM	32 µM	32 µM	4 µM	25,4 µM			2 µM	MIC (E. faecium ATCC 19434 [4]; ATCC 19434, 18 h): 16 µM; MIC (E. cloacae ATCC 13047 [6]; ATCC 13047, 18 h): 2 µM; MIC (geometric mean) (E. cloacae ATCC 13047 [6]; ATCC 13047, 18 h): 2,5 µM; MBC (geometric mean) (P. aeruginosa ATCC 27853 [13]; ATCC 27853, 18 h): 25,4 µM
WRIRRRWPRLPRPRWRPRFPPPFPIPR [Peptide B7-T11]	1 µM	1 µM	1 µM	2 µM	1,3 µM	16 µM	12,7 µM	1 µM	16 µM	12,7 µM	2 µM	1,3 µM	32 µM	16 µM	16 µM		20,2 µM	4 µM	3,2 µM	2 µM	MIC (E. faecium ATCC 19434 [4]; ATCC 19434, 18 h): 4 µM; MIC (geometric mean) (E. faecium ATCC 19434 [4]; ATCC 19434, 18 h): 5,0 µM; MIC (geometric mean) (A. baumannii ATCC 19606 [16]): 1,3 µM; MBC (geometric mean) (E. faecium ATCC 19434 [9]; ATCC 19434, 18 h): 40,3 µM; MBC (A. baumannii ATCC 19606 [12]; ATCC 19606, 18 h): 2 µM; MBC (geometric mean) (A. baumannii ATCC 19606 [12]; ATCC 19606, 18 h): 1,6 µM; MBC (geometric mean) (P. aeruginosa ATCC 27853 [13]; ATCC 27853, 18 h): 20,2 µM; Cytotoxicity toward A549 cells (MTT) at 64 µM (A549 cells): cytotoxic
WRIRRRWPRLPRPRWRPWFPPR [Peptide B7-L6]	2 µM		1 µM	4 µM	3,2 µM			2 µM	4 µM	5,0 µM	4 µM	3,2 µM	32 µM	8 µM		2 µM	10,1 µM	4 µM	3,2 µM	2 µM	MIC [17]: 2 µM; MIC (geometric mean) [17]: 2,5 µM; MIC (geometric mean) (A. baumannii ATCC 19606 [16]): 1,6 µM; MBC (geometric mean) (E. faecium ATCC 19434 [9]; ATCC 19434, 18 h): 40,3 µM; MBC (A. baumannii ATCC 19606 [12]; ATCC 19606, 18 h): 2 µM; MBC (geometric mean) (A. baumannii ATCC 19606 [12]; ATCC 19606, 18 h): 1,6 µM; MBC (geometric mean) (E. cloacae ATCC 13047 [14]; ATCC 13047, 18 h): 2,5 µM
WRIRRRWPRLPRPRWRPWFPPRFPIPR [Peptide B7-L11]	2 µM	1 µM	2 µM	2 µM	2,5 µM		5,0 µM		8 µM	6,3 µM	2 µM	2,5 µM	16 µM			2 µM		4 µM	3,2 µM	2 µM	MIC [17]: 2 µM; MIC (geometric mean) [17]: 2,5 µM; MBC (geometric mean) (E. cloacae ATCC 13047 [14]; ATCC 13047, 18 h): 2,5 µM
